Data taken from patent US6358885B1, “Substituted phenylheterocyclic herbicides” (Mississippi State University, priority 1992, dated 2002).

Key:
Experiment in all cases: Test B preemergence/postemergence greenhouse plant response rating 0 to 10
barley = type: in vivo, Hordeum vulgare; conditions: for Plant response rating, Barley: 0 to 10 scale
In short: (§1)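 Postemergence treatment of plants two to eighteen cm tall ran alongside preemergence treatment of planted seed, each using compound in a non-phytotoxic solvent.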

barnyardgrass = type: in vivo, Echinochloa crus-galli; conditions: for Plant response rating, Barnyardgrass: 0 to 10 scale
In short: as §1

bedstraw = type: in vivo, Galium aparine; conditions: for Plant response rating, Bedstraw: 0 to 10 scale
In short: as §1

blackgrass = type: in vivo, Alopecurus myosuroides; conditions: for Plant response rating, Blackgrass: 0 to 10 scale
In short: as §1

cheatgrass = type: in vivo, Bromus secalinus; conditions: for Plant response rating, Cheatgrass: 0 to 10 scale
In short: as §1

chickweed = type: in vivo, Stellaria media; conditions: for Plant response rating, Chickweed: 0 to 10 scale
In short: as §1

cocklebur = type: in vivo, Xanthium pensylvanicum; conditions: for Plant response rating, Cocklebur: 0 to 10 scale
In short: as §1

corn = type: in vivo, Zea mays; conditions: for Plant response rating, Corn: 0 to 10 scale
In short: as §1

cotton = type: in vivo, Gossypium hirsutum; conditions: for Plant response rating, Cotton: 0 to 10 scale
In short: as §1

crabgrass = type: in vivo, Digitaria spp.; conditions: for Plant response rating, Crabgrass: 0 to 10 scale
In short: as §1

giant foxtail = type: in vivo, Setaria faberii; conditions: for Plant response rating, Giant foxtail: 0 to 10 scale
In short: as §1

lambsquarters = type: in vivo, Chenopodium album; conditions: for Plant response rating, Lambsquarter: 0 to 10 scale
In short: as §1

morningglory = type: in vivo, Ipomoea hederacea; conditions: for Plant response rating, Morningglory: 0 to 10 scale
In short: as §1

rape = type: in vivo, Brassica napus; conditions: for Plant response rating, Rape: 0 to 10 scale
In short: as §1

rice = type: in vivo, Oryza sativa; conditions: for Plant response rating, Rice: 0 to 10 scale
In short: as §1

sorghum = type: in vivo, Sorghum bicolor; conditions: for Plant response rating, Sorghum: 0 to 10 scale
In short: as §1

soybean = type: in vivo, Glycine max; conditions: for Plant response rating, Soybean: 0 to 10 scale
In short: as §1

sugar beet = type: in vivo, Beta vulgaris; conditions: for Plant response rating, Sugar beet: 0 to 10 scale
In short: as §1

velvetleaf = type: in vivo, Abutilon theophrasti; conditions: for Plant response rating, Velvetleaf: 0 to 10 scale
In short: as §1

wheat = type: in vivo, Triticum aestivum; conditions: for Plant response rating, Wheat: 0 to 10 scale
In short: as §1

wild buckwheat = type: in vivo, Polygonum convolvulus; conditions: for Plant response rating, Wild buckwheat: 0 to 10 scale
In short: as §1

wild oat = type: in vivo, Avena fatua; conditions: for Plant response rating, Wild oat: 0 to 10 scale
In short: as §1

purple nutsedge = type: in vivo, Cyperus rotundus; conditions: for Plant response rating, Nutsedge: 0 to 10 scale
In short: as §1

C#CC(C)Oc1cc(-c2nn3c(c2Cl)CCCC3)c(Cl)cc1Cl (centres unmarked) [Compound 74]
Plant response rating, Barley (barley; POSTEMERGENCE, Rate 50 g/ha): 2
Plant response rating, Barley (barley; PREEMERGENCE, Rate 50 g/ha): 0
Plant response rating (0 to 10 scale), Barley (barley; PREEMERGENCE, Rate 200 g/ha): 0
Plant response rating, Barley (barley; Rate 200 g/ha, POSTEMERGENCE): 4
Plant response rating, Barnyardgrass (barnyardgrass; POSTEMERGENCE, Rate 50 g/ha): 5
Plant response rating, Barnyardgrass (barnyardgrass; PREEMERGENCE, Rate 50 g/ha): 0
Plant response rating (0 to 10 scale), Barnyardgrass (barnyardgrass; PREEMERGENCE, Rate 200 g/ha): 1
Plant response rating, Barnyardgrass (barnyardgrass; Rate 200 g/ha, POSTEMERGENCE): 7
Plant response rating, Bedstraw (bedstraw; POSTEMERGENCE, Rate 50 g/ha): 8
Plant response rating, Bedstraw (bedstraw; PREEMERGENCE, Rate 50 g/ha): 0
Plant response rating (0 to 10 scale), Bedstraw (bedstraw; PREEMERGENCE, Rate 200 g/ha): 9
Plant response rating, Bedstraw (bedstraw; Rate 200 g/ha, POSTEMERGENCE): 9
Plant response rating, Blackgrass (blackgrass; POSTEMERGENCE, Rate 50 g/ha): 6
Plant response rating, Blackgrass (blackgrass; PREEMERGENCE, Rate 50 g/ha): 0
Plant response rating (0 to 10 scale), Blackgrass (blackgrass; PREEMERGENCE, Rate 200 g/ha): 8
Plant response rating, Blackgrass (blackgrass; Rate 200 g/ha, POSTEMERGENCE): 6
Plant response rating, Cheatgrass (cheatgrass; POSTEMERGENCE, Rate 50 g/ha): 6
Plant response rating, Cheatgrass (cheatgrass; PREEMERGENCE, Rate 50 g/ha): 4
Plant response rating (0 to 10 scale), Cheatgrass (cheatgrass; PREEMERGENCE, Rate 200 g/ha): 4
Plant response rating, Cheatgrass (cheatgrass; Rate 200 g/ha, POSTEMERGENCE): 6
Plant response rating, Chickweed (chickweed; POSTEMERGENCE, Rate 50 g/ha): 6
Plant response rating, Chickweed (chickweed; PREEMERGENCE, Rate 50 g/ha): 0
Plant response rating (0 to 10 scale), Chickweed (chickweed; PREEMERGENCE, Rate 200 g/ha): 5
Plant response rating, Chickweed (chickweed; Rate 200 g/ha, POSTEMERGENCE): 7
Plant response rating, Cocklebur (cocklebur; POSTEMERGENCE, Rate 50 g/ha): 9
Plant response rating, Cocklebur (cocklebur; PREEMERGENCE, Rate 50 g/ha): 0
Plant response rating (0 to 10 scale), Cocklebur (cocklebur; PREEMERGENCE, Rate 200 g/ha): 0
Plant response rating, Cocklebur (cocklebur; Rate 200 g/ha, POSTEMERGENCE): 10
Plant response rating, Corn (corn; POSTEMERGENCE, Rate 50 g/ha): 2
Plant response rating, Corn (corn; PREEMERGENCE, Rate 50 g/ha): 0
Plant response rating (0 to 10 scale), Corn (corn; PREEMERGENCE, Rate 200 g/ha): 0
Plant response rating, Corn (corn; Rate 200 g/ha, POSTEMERGENCE): 4
Plant response rating, Cotton (cotton; POSTEMERGENCE, Rate 50 g/ha): 10
Plant response rating, Cotton (cotton; PREEMERGENCE, Rate 50 g/ha): 0
Plant response rating (0 to 10 scale), Cotton (cotton; PREEMERGENCE, Rate 200 g/ha): 0
Plant response rating, Cotton (cotton; Rate 200 g/ha, POSTEMERGENCE): 10
Plant response rating, Crabgrass (crabgrass; POSTEMERGENCE, Rate 50 g/ha): 3
Plant response rating, Crabgrass (crabgrass; PREEMERGENCE, Rate 50 g/ha): 2
Plant response rating (0 to 10 scale), Crabgrass (crabgrass; PREEMERGENCE, Rate 200 g/ha): 6
Plant response rating, Crabgrass (crabgrass; Rate 200 g/ha, POSTEMERGENCE): 5
Plant response rating, Giant foxtail (giant foxtail; POSTEMERGENCE, Rate 50 g/ha): 5
Plant response rating, Giant foxtail (giant foxtail; PREEMERGENCE, Rate 50 g/ha): 2
Plant response rating (0 to 10 scale), Giant foxtail (giant foxtail; PREEMERGENCE, Rate 200 g/ha): 6
Plant response rating, Giant foxtail (giant foxtail; Rate 200 g/ha, POSTEMERGENCE): 5
Plant response rating, Lambsquarter (lambsquarters; POSTEMERGENCE, Rate 50 g/ha): 9
Plant response rating, Lambsquarter (lambsquarters; PREEMERGENCE, Rate 50 g/ha): 9
Plant response rating (0 to 10 scale), Lambsquarter (lambsquarters; PREEMERGENCE, Rate 200 g/ha): 10
Plant response rating, Lambsquarter (lambsquarters; Rate 200 g/ha, POSTEMERGENCE): 10
Plant response rating, Morningglory (morningglory; POSTEMERGENCE, Rate 50 g/ha): 9
Plant response rating, Morningglory (morningglory; PREEMERGENCE, Rate 50 g/ha): 0
Plant response rating (0 to 10 scale), Morningglory (morningglory; PREEMERGENCE, Rate 200 g/ha): 0
Plant response rating, Morningglory (morningglory; Rate 200 g/ha, POSTEMERGENCE): 9
Plant response rating, Rape (rape; POSTEMERGENCE, Rate 50 g/ha): 10
Plant response rating, Rape (rape; PREEMERGENCE, Rate 50 g/ha): 0
Plant response rating (0 to 10 scale), Rape (rape; PREEMERGENCE, Rate 200 g/ha): 7
Plant response rating, Rape (rape; Rate 200 g/ha, POSTEMERGENCE): 10
Plant response rating, Rice (rice; POSTEMERGENCE, Rate 50 g/ha): 3
Plant response rating, Rice (rice; PREEMERGENCE, Rate 50 g/ha): 0
Plant response rating (0 to 10 scale), Rice (rice; PREEMERGENCE, Rate 200 g/ha): 0
Plant response rating, Rice (rice; Rate 200 g/ha, POSTEMERGENCE): 6
Plant response rating, Sorghum (sorghum; POSTEMERGENCE, Rate 50 g/ha): 5
Plant response rating, Sorghum (sorghum; PREEMERGENCE, Rate 50 g/ha): 0
Plant response rating (0 to 10 scale), Sorghum (sorghum; PREEMERGENCE, Rate 200 g/ha): 0
Plant response rating, Sorghum (sorghum; Rate 200 g/ha, POSTEMERGENCE): 7
Plant response rating, Soybean (soybean; POSTEMERGENCE, Rate 50 g/ha): 6
Plant response rating, Soybean (soybean; PREEMERGENCE, Rate 50 g/ha): 0
Plant response rating (0 to 10 scale), Soybean (soybean; PREEMERGENCE, Rate 200 g/ha): 0
Plant response rating, Soybean (soybean; Rate 200 g/ha, POSTEMERGENCE): 6
Plant response rating, Sugar beet (sugar beet; POSTEMERGENCE, Rate 50 g/ha): 10
Plant response rating, Sugar beet (sugar beet; PREEMERGENCE, Rate 50 g/ha): 0
Plant response rating (0 to 10 scale), Sugar beet (sugar beet; PREEMERGENCE, Rate 200 g/ha): 10
Plant response rating, Sugar beet (sugar beet; Rate 200 g/ha, POSTEMERGENCE): 10
Plant response rating, Velvetleaf (velvetleaf; POSTEMERGENCE, Rate 50 g/ha): 10
Plant response rating, Velvetleaf (velvetleaf; PREEMERGENCE, Rate 50 g/ha): 5
Plant response rating (0 to 10 scale), Velvetleaf (velvetleaf; PREEMERGENCE, Rate 200 g/ha): 9
Plant response rating, Velvetleaf (velvetleaf; Rate 200 g/ha, POSTEMERGENCE): 10
Plant response rating, Wheat (wheat; POSTEMERGENCE, Rate 50 g/ha): 4
Plant response rating, Wheat (wheat; PREEMERGENCE, Rate 50 g/ha): 0
Plant response rating (0 to 10 scale), Wheat (wheat; PREEMERGENCE, Rate 200 g/ha): 0
Plant response rating, Wheat (wheat; Rate 200 g/ha, POSTEMERGENCE): 5
Plant response rating, Wild buckwheat (wild buckwheat; POSTEMERGENCE, Rate 50 g/ha): 10
Plant response rating, Wild buckwheat (wild buckwheat; PREEMERGENCE, Rate 50 g/ha): 5
Plant response rating (0 to 10 scale), Wild buckwheat (wild buckwheat; PREEMERGENCE, Rate 200 g/ha): 9
Plant response rating, Wild buckwheat (wild buckwheat; Rate 200 g/ha, POSTEMERGENCE): 10
Plant response rating, Wild oat (wild oat; POSTEMERGENCE, Rate 50 g/ha): 4
Plant response rating, Wild oat (wild oat; PREEMERGENCE, Rate 50 g/ha): 0
Plant response rating (0 to 10 scale), Wild oat (wild oat; PREEMERGENCE, Rate 200 g/ha): 3
Plant response rating, Wild oat (wild oat; Rate 200 g/ha, POSTEMERGENCE): 4
Plant response rating, Nutsedge (purple nutsedge; POSTEMERGENCE, Rate 50 g/ha): 2
Plant response rating, Nutsedge (purple nutsedge; PREEMERGENCE, Rate 50 g/ha): 0
Plant response rating (0 to 10 scale), Nutsedge (purple nutsedge; PREEMERGENCE, Rate 200 g/ha): 0
Plant response rating, Nutsedge (purple nutsedge; Rate 200 g/ha, POSTEMERGENCE): 2
